# Source: ChEMBL document CHEMBL6096671, “Discovery of VU6024578/BI02982816: An mGlu1 Positive Allosteric Modulator with Efficacy in Preclinical Antipsychotic and Cognition Models” (J Med Chem, 2024)
# Calls of active or inactive are those of the source. No cut-off for these calls is given here.
# Columns and labels:
# [1] = target: T1, Metabotropic glutamate receptor 1 (Homo sapiens, UniProt Q13255); assay: Positive allosteric modulation of human mGlu1
# Target sequence in this assay (Q13255 whole entry): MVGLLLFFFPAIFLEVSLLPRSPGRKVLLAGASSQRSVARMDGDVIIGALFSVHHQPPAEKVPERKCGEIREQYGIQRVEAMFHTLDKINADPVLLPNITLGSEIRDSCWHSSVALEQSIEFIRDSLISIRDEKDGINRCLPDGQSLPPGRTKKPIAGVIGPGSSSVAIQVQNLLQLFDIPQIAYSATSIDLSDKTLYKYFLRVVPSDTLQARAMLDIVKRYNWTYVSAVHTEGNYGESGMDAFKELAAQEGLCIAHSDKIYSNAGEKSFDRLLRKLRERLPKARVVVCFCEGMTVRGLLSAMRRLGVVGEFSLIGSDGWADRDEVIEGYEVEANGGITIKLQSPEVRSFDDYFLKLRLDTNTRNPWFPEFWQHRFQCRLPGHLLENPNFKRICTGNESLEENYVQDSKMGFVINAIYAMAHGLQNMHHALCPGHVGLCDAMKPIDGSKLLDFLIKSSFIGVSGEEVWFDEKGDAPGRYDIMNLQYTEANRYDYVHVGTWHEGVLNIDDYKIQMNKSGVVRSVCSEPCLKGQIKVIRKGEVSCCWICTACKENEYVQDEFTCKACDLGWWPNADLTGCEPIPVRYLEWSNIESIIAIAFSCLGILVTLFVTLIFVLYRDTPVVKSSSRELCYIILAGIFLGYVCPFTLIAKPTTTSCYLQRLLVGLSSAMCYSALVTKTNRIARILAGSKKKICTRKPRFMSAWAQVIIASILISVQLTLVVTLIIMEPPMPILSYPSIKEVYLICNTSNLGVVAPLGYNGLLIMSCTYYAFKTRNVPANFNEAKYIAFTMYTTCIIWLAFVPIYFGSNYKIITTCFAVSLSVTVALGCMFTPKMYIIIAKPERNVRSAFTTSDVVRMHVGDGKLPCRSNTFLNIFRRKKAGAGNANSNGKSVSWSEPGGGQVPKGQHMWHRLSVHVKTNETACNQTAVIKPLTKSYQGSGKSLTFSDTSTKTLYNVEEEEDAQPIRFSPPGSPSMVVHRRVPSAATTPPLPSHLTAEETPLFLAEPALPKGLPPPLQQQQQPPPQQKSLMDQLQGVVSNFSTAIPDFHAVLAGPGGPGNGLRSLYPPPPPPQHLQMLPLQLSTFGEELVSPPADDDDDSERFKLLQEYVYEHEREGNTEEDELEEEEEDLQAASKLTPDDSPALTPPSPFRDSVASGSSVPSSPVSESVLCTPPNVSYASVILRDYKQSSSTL
# [2] = Unbound initial plasma concentration in male dog; format: ADME, Canis lupus familiaris
# [3] = Initial plasma concentration in male dog; format: ADME, Canis lupus familiaris; conditions: read-out: C0
# [4] = target: Metabotropic glutamate receptor 2 (Homo sapiens, UniProt Q14416); assay: Positive allosteric modulation of human mGlu2 receptor
# [5] = Drug metabolism in human liver microsomes assessed as furanyl ring oxidation incubated for 60 mins; format: ADME, Microsome; conditions: 1 h
# [6] = test system: Mus musculus; assay: Reversal of MK-801 induced deficits in sc dosed male C57BL/6JRj mouse model assessed as 40 Hz ASSR in prefrontal cortex measured after 15 mins; format: functional, organism-based; conditions: dose 0.8-3 mg/kg
# [7] = Toxicity in male Sprague-Dawley rat assessed as catalepsy at 1 to 10 mg/kg, po measured after 60 mins; format: organism-based; conditions: in vivo, 1 h, dose 1-10 mg/kg
# [8] = target: Metabotropic glutamate receptor 2 (Rattus norvegicus, UniProt P31421); assay: Positive allosteric modulation of rat mGlu2 receptor
# [9] = Unbound initial plasma concentration in male dog at 0.5 mg/kg, iv; format: ADME, organism-based, Canis lupus familiaris; conditions: in vivo
# [10] = test system: Rattus norvegicus; assay: Antipsychotic activity in male Sprague-Dawley rat assessed as reduction in amphetamine-induced locomotor activity by measuring reversal of total ambulation at 10 mg/kg, po pretreated for 5 hrs followed by amphetamine addition and measured at 95 to 180 mins relative to control; format: functional; set-up: scale not given: the % may be the effect or the level left
# [11] = Unbound brain concentration in male Sprague-Dawley rat at 3 mg/kg, po in 10% tween 80 formulation measured at 15 to 420 mins by LC-MS/MS analysis; format: ADME, organism-based; conditions: in vivo, time 15-420 min
# [12] = Toxicity in male Wistar rat assessed as change in body temperature at 10 mg/kg, po measured at 120 mins post treatment by EEG analysis; format: organism-based; conditions: in vivo, 2 h
# [13] = target: Metabotropic glutamate receptor 4 (Homo sapiens, UniProt Q14833); assay: Positive allosteric modulation of human mGlu4 receptor
# Metabotropic glutamate receptor 4 (Homo sapiens, UniProt Q14833), sequence (Q14833 whole entry): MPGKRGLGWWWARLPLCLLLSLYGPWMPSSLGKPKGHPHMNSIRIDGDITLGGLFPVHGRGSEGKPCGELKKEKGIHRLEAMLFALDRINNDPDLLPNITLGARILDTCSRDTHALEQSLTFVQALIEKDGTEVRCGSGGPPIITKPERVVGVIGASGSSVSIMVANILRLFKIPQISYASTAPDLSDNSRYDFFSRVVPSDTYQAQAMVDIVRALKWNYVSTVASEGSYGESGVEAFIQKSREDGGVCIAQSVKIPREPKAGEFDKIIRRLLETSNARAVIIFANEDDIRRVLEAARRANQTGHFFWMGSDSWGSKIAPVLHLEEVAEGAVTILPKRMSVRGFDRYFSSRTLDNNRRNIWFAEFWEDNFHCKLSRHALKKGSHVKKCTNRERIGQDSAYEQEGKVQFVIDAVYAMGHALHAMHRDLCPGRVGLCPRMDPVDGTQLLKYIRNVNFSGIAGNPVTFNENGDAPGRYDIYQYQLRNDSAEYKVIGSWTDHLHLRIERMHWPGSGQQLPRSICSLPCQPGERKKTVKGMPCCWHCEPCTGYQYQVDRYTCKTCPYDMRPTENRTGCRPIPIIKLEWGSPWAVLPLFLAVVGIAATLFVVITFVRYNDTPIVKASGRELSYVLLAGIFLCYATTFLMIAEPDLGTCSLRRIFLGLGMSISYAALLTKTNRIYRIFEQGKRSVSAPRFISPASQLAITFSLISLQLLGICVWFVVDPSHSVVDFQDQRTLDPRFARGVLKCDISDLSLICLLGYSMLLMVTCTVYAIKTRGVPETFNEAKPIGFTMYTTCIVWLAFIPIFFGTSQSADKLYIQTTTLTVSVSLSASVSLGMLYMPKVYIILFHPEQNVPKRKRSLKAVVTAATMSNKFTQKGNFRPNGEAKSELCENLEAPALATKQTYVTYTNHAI
# [14] = target: Metabotropic glutamate receptor 3 (Rattus norvegicus, UniProt P31422); assay: Positive allosteric modulation of rat mGlu3 receptor
# [15] = Toxicity in male Wistar rat assessed as reduction in rapid eye movement sleep at 1 to 10 mg/kg, po measured at 30 to 120 mins post treatment by EEG analysis; format: organism-based; conditions: in vivo, dose lower 1 mg/kg, time lower 30 min, dose upper 10 mg/kg, time upper 120 min
# [16] = target: Metabotropic glutamate receptor 8 (Rattus norvegicus, UniProt P70579); assay: Positive allosteric modulation of rat mGlu8 receptor
# [17] = target: Metabotropic glutamate receptor 3 (Homo sapiens, UniProt Q14832); assay: Positive allosteric modulation of human mGlu3 receptor
# [18] = Drug metabolism in rat liver microsomes assessed as furanyl ring oxidation incubated for 60 mins; format: ADME, Microsome; conditions: 1 h
# [19] = Toxicity in male Wistar rat assessed as reduction in alpha power at 10 mg/kg, po measured at 60 to 240 mins post treatment by EEG analysis; format: organism-based; conditions: in vivo, time 60-240 min
# [20] = target: T1, Metabotropic glutamate receptor 1; assay: Positive allosteric modulation of mGlu1 receptor (unknown origin) in presence of glutamate at EC20 concentration; conditions: filed as positive allosteric modulator
# Target sequence in this assay (Q13255 19-1194 limits assumed): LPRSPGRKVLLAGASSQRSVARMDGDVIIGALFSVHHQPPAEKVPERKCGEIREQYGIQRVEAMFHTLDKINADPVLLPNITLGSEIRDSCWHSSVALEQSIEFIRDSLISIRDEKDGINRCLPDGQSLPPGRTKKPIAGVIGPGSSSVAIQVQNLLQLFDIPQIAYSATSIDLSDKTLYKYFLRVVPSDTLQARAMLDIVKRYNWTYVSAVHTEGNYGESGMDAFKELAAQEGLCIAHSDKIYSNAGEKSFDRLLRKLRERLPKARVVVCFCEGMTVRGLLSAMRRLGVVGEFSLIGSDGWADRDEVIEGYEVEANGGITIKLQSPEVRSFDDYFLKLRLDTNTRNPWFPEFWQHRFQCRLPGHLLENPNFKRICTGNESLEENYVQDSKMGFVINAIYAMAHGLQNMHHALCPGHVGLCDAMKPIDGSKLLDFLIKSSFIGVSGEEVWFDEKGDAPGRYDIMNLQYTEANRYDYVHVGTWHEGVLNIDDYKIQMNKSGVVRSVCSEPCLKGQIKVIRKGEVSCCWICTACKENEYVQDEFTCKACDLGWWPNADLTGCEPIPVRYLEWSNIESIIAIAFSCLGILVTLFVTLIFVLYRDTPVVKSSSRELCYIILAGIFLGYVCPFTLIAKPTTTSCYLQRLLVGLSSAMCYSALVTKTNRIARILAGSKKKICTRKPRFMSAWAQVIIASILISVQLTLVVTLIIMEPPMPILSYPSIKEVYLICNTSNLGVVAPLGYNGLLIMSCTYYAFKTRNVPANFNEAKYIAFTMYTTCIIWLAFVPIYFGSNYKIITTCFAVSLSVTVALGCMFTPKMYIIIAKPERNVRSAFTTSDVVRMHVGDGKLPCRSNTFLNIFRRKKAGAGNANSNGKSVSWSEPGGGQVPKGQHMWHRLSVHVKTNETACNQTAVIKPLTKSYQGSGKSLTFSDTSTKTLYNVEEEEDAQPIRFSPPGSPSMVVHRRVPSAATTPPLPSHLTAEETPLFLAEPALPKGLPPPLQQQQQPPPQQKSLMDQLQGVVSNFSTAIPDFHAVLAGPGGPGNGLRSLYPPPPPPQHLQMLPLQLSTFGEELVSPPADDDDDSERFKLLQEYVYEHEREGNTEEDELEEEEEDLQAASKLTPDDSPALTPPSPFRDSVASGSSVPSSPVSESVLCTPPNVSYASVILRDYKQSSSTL
# [21] = target: Metabotropic glutamate receptor 4 (Rattus norvegicus, UniProt P31423); assay: Positive allosteric modulation of rat mGlu4 receptor
# [22] = Stability of compound at pH 2.2; format: physicochemical; conditions: buffer
# [23] = test system: Rattus norvegicus; assay: Antipsychotic activity in male Sprague-Dawley rat assessed as reduction in amphetamine-induced locomotor activity by measuring reversal of total ambulation at 3 mg/kg, po pretreated for 1 hrs followed by amphetamine addition and measured at 95 to 180 mins relative to control; format: functional; set-up: scale not given: the % may be the effect or the level left
# [24] = Cmax in amphetamine-induced male Sprague-Dawley rat model at 60 mg/kg and measured at 3.33 hrs post administration; format: ADME, organism-based; conditions: in vivo
# [25] = target: T1, Metabotropic glutamate receptor 1; assay: Antagonist activity at mGlu1 receptor (unknown origin) assessed as desensitization of receptor at EC80 concentration; conditions: filed as antagonist
# Target sequence in this assay (Q13255 19-1194 limits assumed): as above
# [26] = test system: Mus musculus; assay: Reversal of MK-801 induced deficits in male C57BL/6JRj mouse model assessed as 40 Hz ASSR in prefrontal cortex at 0.8 mg/kg, sc measured after 15 mins; format: functional, organism-based
# [27] = Drug metabolism in rat liver microsomes assessed as furanyl ring opening incubated for 60 mins; format: ADME, Microsome; conditions: 1 h
# [28] = test system: Rattus norvegicus; assay: Antipsychotic efficacy against MK-801-induced po dosed male Sprague-Dawley rat assessed as reversal of MK-801 disruption by measuring recognition index measured after 30 mins by novel object recognition test; format: functional, organism-based; conditions: dose 1-10 mg/kg
# [29] = Toxicity in male Wistar rat assessed as reduction in non rapid eye movement sleep at 1 to 10 mg/kg, po measured at 30 to 120 mins post treatment by EEG analysis; format: organism-based; conditions: in vivo, dose lower 1 mg/kg, time lower 30 min, dose upper 10 mg/kg, time upper 120 min
# [30] = target: Metabotropic glutamate receptor 8 (Homo sapiens, UniProt O00222); assay: Positive allosteric modulation of human mGlu8 receptor
# Metabotropic glutamate receptor 8 (Homo sapiens, UniProt O00222), sequence (O00222 whole entry): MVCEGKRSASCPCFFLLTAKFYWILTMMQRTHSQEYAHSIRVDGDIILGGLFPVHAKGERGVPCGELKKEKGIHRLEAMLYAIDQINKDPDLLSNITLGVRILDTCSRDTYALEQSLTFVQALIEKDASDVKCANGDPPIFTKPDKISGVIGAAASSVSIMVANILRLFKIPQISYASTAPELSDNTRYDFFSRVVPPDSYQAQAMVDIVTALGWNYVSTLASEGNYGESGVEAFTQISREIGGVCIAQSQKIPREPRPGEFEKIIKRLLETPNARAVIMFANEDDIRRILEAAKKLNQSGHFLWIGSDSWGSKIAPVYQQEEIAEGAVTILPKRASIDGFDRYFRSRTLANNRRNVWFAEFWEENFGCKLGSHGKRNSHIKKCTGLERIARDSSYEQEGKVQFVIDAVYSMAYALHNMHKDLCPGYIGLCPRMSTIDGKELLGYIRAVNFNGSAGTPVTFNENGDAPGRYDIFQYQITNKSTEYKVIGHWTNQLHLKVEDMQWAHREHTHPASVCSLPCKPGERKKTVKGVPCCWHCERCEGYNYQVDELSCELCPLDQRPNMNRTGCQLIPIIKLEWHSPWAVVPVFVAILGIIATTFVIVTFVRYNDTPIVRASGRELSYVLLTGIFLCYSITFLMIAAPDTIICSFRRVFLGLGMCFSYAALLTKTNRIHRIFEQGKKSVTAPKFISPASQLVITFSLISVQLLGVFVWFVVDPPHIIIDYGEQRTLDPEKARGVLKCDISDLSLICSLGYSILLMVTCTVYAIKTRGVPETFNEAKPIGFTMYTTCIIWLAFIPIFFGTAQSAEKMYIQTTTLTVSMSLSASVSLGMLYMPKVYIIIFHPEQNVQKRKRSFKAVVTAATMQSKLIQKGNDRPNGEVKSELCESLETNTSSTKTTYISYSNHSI
# [31] = Unbound brain concentration in amphetamine-induced hyperlocomotion male Sprague-Dawley rat model at 3 mg/kg, po; format: ADME, organism-based; conditions: in vivo
# [32] = target: Metabotropic glutamate receptor 5 (Rattus norvegicus, UniProt P31424); assay: Positive allosteric modulation of rat mGlu5 receptor
# [33] = Toxicity in male Wistar rat assessed as improvement in sleep-wake profile by measuring active wake state at 10 mg/kg, po measured at 120 mins post treatment by EEG analysis; format: organism-based; conditions: in vivo, 2 h
# [34] = Unbound brain concentration in amphetamine-induced hyperlocomotion male Sprague-Dawley rat model at 10 mg/kg, po measured after 6.5 hrs; format: ADME, organism-based; conditions: in vivo
# [35] = Toxicity in male Wistar rat assessed as reduction in delta power at 10 mg/kg, po measured at 60 to 240 mins post treatment by EEG analysis; format: organism-based; conditions: in vivo, time 60-240 min
# [36] = Mutagenicity in Salmonella typhimurium by Ames test; format: toxicity; conditions: salmonella enterica subsp. enterica serovar typhimurium
# [37] = Toxicity in male Wistar rat assessed as increase in motor activity at 10 mg/kg, po measured at 120 mins post treatment by EEG analysis; format: organism-based; conditions: in vivo, 2 h
# [38] = Toxicity in male Wistar rat assessed as improvement in sleep-wake profile by measuring quiet wake state at 10 mg/kg, po measured at 120 mins post treatment by EEG analysis; format: organism-based; conditions: in vivo, 2 h
# [39] = target: Metabotropic glutamate receptor 7 (Rattus norvegicus, UniProt P35400); assay: Positive allosteric modulation of rat mGlu7 receptor
# [40] = Drug metabolism in human liver microsomes assessed as furanyl ring opening incubated for 60 mins; format: ADME, Microsome; conditions: 1 h
# [41] = Antagonist activity at peripheral Benzodiazepine receptor (unknown origin); set-up: species or system Homo sapiens
# [42] = test system: Mus musculus; assay: Reversal of MK-801 induced N1 sensory gating deficit in male C57BL/6JRj mouse model assessed as improvement in cognitive deficits at 10 mg/kg, sc; format: functional, organism-based
# [43] = test system: Mus musculus; assay: Reversal of MK-801 induced deficits in male C57BL/6JRj mouse model assessed as 40 Hz ASSR in prefrontal cortex at 4 to 10 mg/kg, sc measured after 15 mins; format: functional, organism-based; conditions: dose 4-10 mg/kg
# [44] = Glutathione reactivity in rat liver microsomes incubated for 1 hr in presence of glutathione; format: ADME, Microsome
# [45] = Unbound brain concentration in amphetamine-induced hyperlocomotion male Sprague-Dawley rat model at 3 mg/kg, po measured after 2.5 hrs; format: ADME, organism-based; conditions: in vivo
# [46] = target: Metabotropic glutamate receptor 7 (Homo sapiens, UniProt Q14831); assay: Positive allosteric modulation of human mGlu7 receptor
# [47] = test system: Mus musculus; assay: Antipsychotic efficacy against amphetamine-induced hyperlocomotion in male C57Bl/6 mouse assessed as reversal of hyperlocomotive state administered ip and pretreated with compound followed by amphetamine addition for 60 mins and measured after 90 mins; format: functional, organism-based; conditions: dose 3-30 mg/kg
# [48] = target: T1, Metabotropic glutamate receptor 1; assay: Agonist activity at mGlu1 receptor (unknown origin) upto 30 uM; format: functional
# Target sequence in this assay (Q13255 19-1194 limits assumed): as the sequence (Q13255 19-1194 limits assumed) above
# [49] = Toxicity in male Wistar rat assessed as reduction in beta power at 10 mg/kg, po measured at 60 to 240 mins post treatment by EEG analysis; format: organism-based; conditions: in vivo, time 60-240 min
# [50] = target: Metabotropic glutamate receptor 5 (Homo sapiens, UniProt P41594); assay: Positive allosteric modulation of human mGlu5 receptor
# [51] = Glutathione reactivity in human liver microsomes incubated for 1 hr in presence of glutathione; format: ADME, Microsome
# [52] = Unbound brain concentration in amphetamine-induced hyperlocomotion male Sprague-Dawley rat model at 3 mg/kg, po pretreated for 2.5 hrs; format: ADME, organism-based; conditions: in vivo
# [53] = Unbound brain concentration in amphetamine-induced hyperlocomotion male Sprague-Dawley rat model at 10 mg/kg, po; format: ADME, organism-based; conditions: in vivo
# [54] = Stability of compound at pH 7.4; format: physicochemical; conditions: buffer
# [55] = test system: Rattus norvegicus; assay: Antipsychotic efficacy against amphetamine-induced hyperlocomotion in male Sprague-Dawley rat assessed as reversal of hyperlocomotive state administered orally pretreated with compound followed by amphetamine addition and measured after 90 mins; format: functional, organism-based; conditions: dose 1-10 mg/kg, route po
# [56] = Toxicity in male Sprague-Dawley rat assessed as catalepsy at 1.5 mg/kg, ip measured after 100 mins; format: organism-based; conditions: in vivo, 1.667 h
structure (smiles),measurement,setting,value
Cc1ccc2c(c1)C(=O)N(c1ccc(NC(=O)c3occc3C)c(F)c1)C2=O,EC50,[1],0.013 µM
same,C0(unbound),[2],36.4 nM
same,concentration,[3],1100 nM
Cn1nc(-c2ccnn2C)cc1CNC(=O)c1cc(-c2ccco2)ccc1Cl,EC50,[4],> 30 µM
same,Drug metabolism,[5],metabolite_notdetected
same,Activity,[6],Active
same,Activity,[7],Non-toxic
same,EC50,[8],> 30 µM
same,C0(unbound),[9],80 nM
same,Activity,[10],25.1%
same,Drug uptake(free),[11],100 nM
same,Activity,[12],Non-toxic
same,EC50,[13],> 30 µM
same,EC50,[14],> 30 µM
same,Activity,[15],Non-toxic
same,EC50,[16],> 30 µM
same,EC50,[17],> 30 µM
same,Drug metabolism,[18],metabolite_notdetected
same,Activity,[19],Non-toxic
same,Activity,[20],Active
same,EC50,[21],> 30 µM
same,Stability,[22],Stable
same,Activity,[23],27.3%
same,Cmax,[24],313 nM
same,Activity,[25],Active; Slight Desensitization Was Observed
same,Activity,[26],inactive
same,Drug metabolism,[27],metabolite_notdetected
same,Activity,[28],Dose-dependent-effect
same,Activity,[29],Non-toxic
same,EC50,[30],> 30 µM
same,Drug uptake(free),[31],40 nM
same,EC50,[32],> 30 µM
same,Activity,[33],Non-toxic
same,Drug uptake(free),[34],44 nM
same,Activity,[35],Non-toxic
same,Activity,[36],Non-toxic
same,Activity,[37],Non-toxic
same,Activity,[38],Non-toxic
same,EC50,[39],> 30 µM
same,Drug metabolism,[40],metabolite_notdetected
same,IC50,[41],0.207 µM
same,Activity,[42],Active
same,Activity,[43],Active
same,Drug metabolism,[44],metabolite_detected
same,Drug uptake(free),[45],40 nM
same,EC50,[46],> 30 µM
same,Activity,[47],Dose-dependent-effect
same,Activity,[48],inactive
same,Activity,[49],Non-toxic
same,EC50,[50],> 30 µM
same,Drug metabolism,[51],metabolite_detected
same,Drug uptake(free),[52],32 nM
same,Drug uptake(free),[53],44 nM
same,Stability,[54],Stable
same,Activity,[55],Dose-dependent-effect
O=C(CCCN1CCC(O)(c2ccc(Cl)cc2)CC1)c1ccc(F)cc1 [HALOPERIDOL],Activity,[56],Toxic
